Results on 18 molecules are retold here after PubChem BioAssay AID274 (DTP/NCI, 2004).

The test system of the experiment is BDF1 mice, Lewis lung carcinoma iv, survival T/C. In words: NCI In Vivo Anticancer Drug Screen. Data for tumor model Lewis Lung Carcinoma (intravenous) in B6D2F1 (BDF1) mice. The conditions noted are these: endpoint: median survival time, higher = longer survival. Here is the method:
The antitumor activity of compounds was measured in mice bearing transplantable tumors. Survival or tumor size were measured and the results are expressed as the measurement made in the treated group (T) divided by the measurement made in the vehicle treated control group (C). The tumor model used in this assay is Lewis Lung Carcinoma (intravenous) in B6D2F1 (BDF1) mice

Where [1] appears, read: dose: 12.5 mg/kg/injection, schedule: Q01DX009 (ip), vehicle: saline.
Where [2] appears, read: dose: 25.0 mg/kg/injection, schedule: Q01DX009 (ip), vehicle: saline.
The mark [3] stands for this setting: dose: 50.0 mg/kg/injection, schedule: Q01DX009 (ip), vehicle: saline.
Where [4] appears, read: dose: 100.0 mg/kg/injection, schedule: Q01DX009 (ip), vehicle: saline.
Where [5] appears, read: dose: 200.0 mg/kg/injection, schedule: Q01DX009 (ip), vehicle: saline.
Where [6] appears, read: dose: 50.0 mg/kg/injection, schedule: Q01DX009 (ip), vehicle: saline with Tween-80.
Setting [7] is: dose: 200.0 mg/kg/injection, schedule: Q01DX009 (ip), vehicle: saline with Tween-80.
Where [8] appears, read: dose: 25.0 mg/kg/injection, schedule: Q01DX009 (ip), vehicle: saline with Tween-80.
[9] abbreviates: dose: 100.0 mg/kg/injection, schedule: Q01DX009 (ip), vehicle: saline with Tween-80.
Where [10] appears, read: dose: 6.25 mg/kg/injection, schedule: Q01DX009 (ip), vehicle: saline.

SMILES strings stand for the structures. Several values for one entry are separate records, joined by “and”; a condition that tells them apart may be missing. Equal entries are not always repeated. Inconclusive results and toxic doses are left out.

Regarding `O=C1CN(CN2CCOCC2)C(=O)CN1CN1CCOCC1`, the T/C is 118 % of control under setting [1]; 113 % of control under setting [2]; 95 % of control under setting [3]; 93 % of control under setting [4]; 104 % of control under setting [5].
Regarding `O=C(Nc1cccc(Cl)c1)ON1C(=O)C2C(C1=O)C1(Cl)C(Cl)C(Cl)C2(Cl)C1(Cl)Cl` (centres undefined), the T/C was 98 % of control under setting [6] and 87 % of control under setting [7].
Regarding `COc1cc2ccnc(C=O)c2cc1OC`, the T/C by setting is: under setting [8], 107 % of control; under setting [6], 102 % of control; under setting [9], 102 % of control; under setting [7], 108 % of control.
With `CN(C)[C@@H]1C(=O)C(C(N)=O)=C(O)[C@@]2(O)C(=O)C3=C(O)c4c(O)ccc(Cl)c4[C@@](C)(O)[C@H]3C[C@@H]12`, the T/C reads like this: under setting [1], 111 % of control; under setting [2], 101 % of control; under setting [3], 99 % of control; under setting [4], 103 % of control; under setting [5], 107 % of control.
With `CC[C@](C)(O)C(=O)O[C@H]1C(=O)O[C@@H]2C[C@H]3C(C)=CC(=O)[C@@H](O)[C@]3(C)[C@H]3[C@@]4(O)OC[C@]32[C@@H]1[C@@H](C)[C@H]4O`, the T/C (dose: 0.12 mg/kg/injection, schedule: Q01DX009 (ip), vehicle: steriod suspending solution) is 92 % of control; the T/C (dose: 0.25 mg/kg/injection, schedule: Q01DX009 (ip), vehicle: steriod suspending solution) is 106 % of control; the T/C (dose: 0.5 mg/kg/injection, schedule: Q01DX009 (ip), vehicle: steriod suspending solution) is 99 % of control.
Consider `C=CC(=O)NCNC(=O)C=C`, for which the T/C is 90 % of control under setting [10]; 102 % of control and 113 % of control under setting [1]; 98 % of control and 104 % of control under setting [2]; 97 % of control and 98 % of control under setting [3]; 101 % of control and 110 % of control under setting [4].
Consider `C=C(C)C(=O)OCC1CO1` (centres undefined), for which the T/C is 88 % of control (dose: 50.0 mg/kg/injection, schedule: Q01DX009 (ip), vehicle: Klucel (hydroxypropylcellulose) (HPC)) and 105 % of control (dose: 100.0 mg/kg/injection, schedule: Q01DX009 (ip), vehicle: Klucel (hydroxypropylcellulose) (HPC)).
As for `NC(=O)c1ncn2c(=O)n(CCCl)nnc12`, the T/C (dose: 3.12 mg/kg/injection, schedule: Q01DX009 (ip), vehicle: saline) was 103 % of control; the T/C under setting [10] is 120 % of control; the T/C under setting [1] was 159 % of control; the T/C under setting [2] was 298 % of control.
On to `CCCCCCCCCCCCOP(N)(=O)OCCCCCCCCCCCC`, for which the T/C is, setting by setting: under setting [8], 97 % of control; under setting [6], 93 % of control; under setting [9], 91 % of control.
Consider `Nc1nnc[se]1`, for which the T/C by setting is: (dose: 3.12 mg/kg/injection, schedule: Q01DX009 (ip), vehicle: saline with Tween-80) 103 % of control; (dose: 6.25 mg/kg/injection, schedule: Q01DX009 (ip), vehicle: saline with Tween-80) 111 % of control; under setting [8], 118 % of control.
Turning to `O=C(O)CC(=O)O.[NH-]CC[NH-].[Pt+2]`, the T/C runs as follows: under setting [10], 111 % of control; under setting [2], 156 % of control.
On to `CCC1(O)CC2CN(CCc3c([nH]c4ccccc34)C(C(=O)OC)(c3cc4c(cc3OC)N(C)C3C(O)(C(=O)NCCO)C(O)C5(CC)C=CCN6CCC43C65)C2)C1` (centres undefined), for which the T/C was 96 % of control (dose: 0.6 mg/kg/injection, schedule: Q04DX003 (ip), vehicle: saline); 101 % of control (dose: 1.0 mg/kg/injection, schedule: Q04DX003 (ip), vehicle: saline); 101 % of control (dose: 1.67 mg/kg/injection, schedule: Q04DX003 (ip), vehicle: saline); 111 % of control (dose: 216.0 micrograms/kg/injection, schedule: Q01DX009 (ip), vehicle: saline); 111 % of control (dose: 360.0 micrograms/kg/injection, schedule: Q01DX009 (ip), vehicle: saline).
Consider `CCN1/C(=C/C=C/C=C\C=C\c2sc3ccc4ccccc4c3[n+]2CC)Sc2ccc3ccccc3c21`, for which the T/C is, setting by setting: (dose: 0.08 mg/kg/injection, schedule: Q01DX009 (ip), vehicle: saline with Tween-80) 101 % of control; (dose: 0.16 mg/kg/injection, schedule: Q01DX009 (ip), vehicle: saline with Tween-80) 104 % of control; (dose: 0.31 mg/kg/injection, schedule: Q01DX009 (ip), vehicle: saline with Tween-80) 98 % of control; (dose: 0.62 mg/kg/injection, schedule: Q01DX009 (ip), vehicle: saline with Tween-80) 104 % of control; (dose: 1.25 mg/kg/injection, schedule: Q01DX009 (ip), vehicle: saline with Tween-80) 105 % of control; (dose: 2.5 mg/kg/injection, schedule: Q01DX009 (ip), vehicle: saline with Tween-80) 105 % of control.
For the molecule `Nc1ncnc2c1ncn2C1OC(CO)C(O)C1O` (centres undefined), the T/C reads like this: (dose: 32.0 mg/kg/injection, schedule: Q01DX009 (ip), vehicle: Klucel (hydroxypropylcellulose) (HPC)) 101 % of control; (dose: 64.0 mg/kg/injection, schedule: Q01DX009 (ip), vehicle: Klucel (hydroxypropylcellulose) (HPC)) 108 % of control; (dose: 128.0 mg/kg/injection, schedule: Q01DX009 (ip), vehicle: Klucel (hydroxypropylcellulose) (HPC)) 97 % of control; (dose: 256.0 mg/kg/injection, schedule: Q01DX009 (ip), vehicle: Klucel (hydroxypropylcellulose) (HPC)) 106 % of control; (dose: 512.0 mg/kg/injection, schedule: Q01DX009 (ip), vehicle: Klucel (hydroxypropylcellulose) (HPC)) 87 % of control.
As to `O=C(NCCCN1CC1)C(=O)NCCCN1CC1`, the T/C was 110 % of control (dose: 0.75 mg/kg/injection, schedule: Q01DX009 (ip), vehicle: saline); 114 % of control (dose: 1.5 mg/kg/injection, schedule: Q01DX009 (ip), vehicle: saline); 120 % of control (dose: 3.0 mg/kg/injection, schedule: Q01DX009 (ip), vehicle: saline).
For `Cc1c2cc[n+](CCN3CCCCC3)cc2c(C)c2c1[nH]c1ccc(O)cc12`, the T/C is 105 % of control (dose: 1.56 mg/kg/injection, schedule: Q01DX009 (ip), vehicle: suspension in saline); 100 % of control (dose: 3.12 mg/kg/injection, schedule: Q01DX009 (ip), vehicle: suspension in saline); 109 % of control (dose: 6.25 mg/kg/injection, schedule: Q01DX009 (ip), vehicle: suspension in saline); 118 % of control (dose: 12.5 mg/kg/injection, schedule: Q01DX009 (ip), vehicle: suspension in saline); 122 % of control (dose: 25.0 mg/kg/injection, schedule: Q01DX009 (ip), vehicle: suspension in saline).
Regarding `N=c1ccn2c(n1)OC1C(O)C(CO)OC12` (centres undefined), the T/C was 104 % of control under setting [2]; 108 % of control (dose: 37.5 mg/kg/injection, schedule: Q01DX009 (ip), vehicle: saline); 106 % of control (dose: 75.0 mg/kg/injection, schedule: Q01DX009 (ip), vehicle: saline); 112 % of control under setting [4]; 119 % of control (dose: 150.0 mg/kg/injection, schedule: Q01DX009 (ip), vehicle: saline); 104 % of control (dose: 300.0 mg/kg/injection, schedule: Q01DX009 (ip), vehicle: saline). Besides, the T/C (dose: 600.0 mg/kg/injection, schedule: Q01DX009 (ip), vehicle: saline) is 92 % of control.
`C=C1C(=O)OCC2C(C(=O)O)=CC3C(C)C(C)=CC123` (centres undefined): the T/C (dose: 2.5 mg/kg/injection, schedule: Q01DX009 (ip), vehicle: Klucel (hydroxypropylcellulose) (HPC)) is 87 % of control; the T/C (dose: 5.0 mg/kg/injection, schedule: Q01DX009 (ip), vehicle: Klucel (hydroxypropylcellulose) (HPC)) was 92 % of control; the T/C (dose: 10.0 mg/kg/injection, schedule: Q01DX009 (ip), vehicle: Klucel (hydroxypropylcellulose) (HPC)) is 95 % of control; the T/C (dose: 40.0 mg/kg/injection, schedule: Q01DX009 (ip), vehicle: Klucel (hydroxypropylcellulose) (HPC)) is 91 % of control; the T/C (dose: 80.0 mg/kg/injection, schedule: Q01DX009 (ip), vehicle: Klucel (hydroxypropylcellulose) (HPC)) was 92 % of control.
